In general, IC50 refers to the concentration that inhibits the measured activity by half.

Assay [1] concerns the target LCK (Homo sapiens, UniProt P06239). Kind of assay: Kinase selectivity panel. In kind it is biochemical. The conditions noted are these: [ATP] = 1 mM.
Assay [2] deals with FGFR3 (Homo sapiens, UniProt P22607). Put plainly: Kinase selectivity panel. In kind it is biochemical. The note with it: [ATP] = 1 mM.
Assay [3] concerns the target PRKAA1 (Homo sapiens, UniProt Q13131). Put plainly: Kinase selectivity panel. In kind it is biochemical. The note with it: [ATP] = 1 mM.
For assay [4], the system named is KMS-12-BM (MM) xenografts. Put plainly: Tumor growth in KMS-12-BM (MM) xenograft. In kind it is in vivo, mouse. The conditions noted are these: KMS-12-BM tumors. Here is the method: Female immune compromised (severe combined immunodeficiency [SCID]) mice (5–9 weeks of age; Charles River Laboratories, Wilmington, Massachusetts) were inoculated with MOLM-16, KG-1, or KMS-12-BM cells. A cell suspension in Dulbecco’s phosphate-buffered saline (DPBS) (1 × 10^8 cells/ml) was mixed 1:1 (v/v) with matrigel, and 200 μl was injected subcutaneously into the flank of each mouse. Studies of INCB053914 combination regimens used xenograft models derived from INA-6 (MM) cells or Pfeiffer (DLBCL) cells. INA-6 tumor fragments were injected subcutaneously as brei (100 μl in Hank’s balanced salt solution [HBSS, 1:10 v/v]) into the flank of each mouse; Pfeiffer tumor fragments (1 cm × 1 cm) were directly implanted. The treatment of tumor-bearing mice started 7 to 24 days after tumor inoculation for efficacy studies and approximately 14 to 27 days after tumor inoculation for pharmacodynamic studies.
For efficacy studies, mice were sorted to obtain approximately equivalent mean tumor volumes in each group. The starting mean tumor volume in efficacy studies for all groups ranged from 158 mm^3 to 249 mm^3, and groups consisted of eight or nine animals. The mean tumor volume in pharmacodynamic studies for all groups ranged from 114 mm^3 to 833 mm^3, and groups consisted of three to eight animals. INCB053914 was administered by oral gavage twice a day for 7 to 19 days (suspension in 5% dimethylacetamide with 0.5% w/v methylcellulose [Sigma-Aldrich]) or by subcutaneous continuous infusion (Alzet osmotic pumps; flow rate 0.5 μl/h for efficacy studies and 1.0 μl/h for pharmacodynamic studies).
For the evaluation of the effects of INCB053914 on tumor growth, tumor-bearing mice (MOLM-16 xenograft, eight mice/group; KMS-12-BM xenograft, nine mice/group) were dosed orally twice a day with INCB053914 at doses ranging from 0 (vehicle) to 100 mg/kg for 15 days.
Tumor volume was calculated in two dimensions using the equation: volume = [length × (width^2)] / 2, where the larger number was length and the smaller number was width. Effects on tumor growth were reported as percent tumor growth inhibition calculated as (1 − [treatment volume / control volume]) × 100, where control volume was the vehicle/untreated tumor volume on a given day and treatment volume was any treatment group tumor volume on that same day. Statistical significance of differences between treatment and vehicle controls was assessed using analysis of variance single factor test.

Assay [5] deals with BAD phosphorylation in whole blood spiked with KMS-12-BM cells. Put plainly: BAD phosphorylation in whole blood samples spiked with tumor cells, treated ex vivo. In kind it is cell-based. The conditions noted are these: Homo sapiens.
The target in assay [6] is PIM1 (Homo sapiens, UniProt P11309). Put plainly: PIM1 AlphaScreen kinase assay. In kind it is biochemical. The note with it: 1 mM ATP; read-out: Mean (SD) IC50. Here is the method: The activity of INCB053914 against the PIM1 and PIM3 kinases was measured using AlphaScreen® assays (PerkinElmer, Inc., Shelton, Connecticut), and against PIM2 kinase using a time-resolved fluorescence resonance energy transfer assay (see Supporting Information, S1 File)
PIM1, sequence (P11309 whole entry): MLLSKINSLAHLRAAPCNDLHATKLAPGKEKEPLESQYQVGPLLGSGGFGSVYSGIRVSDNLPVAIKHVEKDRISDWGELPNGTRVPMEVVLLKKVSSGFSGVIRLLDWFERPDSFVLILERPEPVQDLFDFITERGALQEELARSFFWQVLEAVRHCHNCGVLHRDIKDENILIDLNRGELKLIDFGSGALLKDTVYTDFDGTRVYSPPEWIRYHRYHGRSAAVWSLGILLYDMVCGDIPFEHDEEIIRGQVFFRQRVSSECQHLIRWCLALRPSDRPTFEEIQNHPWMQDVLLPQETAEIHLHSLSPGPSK
AlphaScreen assay. Reactions (20 μl) were carried out in white 384-well polystyrene plates (Greiner Bio-One, Kremsmünster, Austria) dotted with 0.8 μl of the compound in dimethylsulfoxide in the assay buffer (50 mM Tris, pH 7.5, 0.01% Tween-20, 5 mM MgCl2, 0.01% bovine serum albumin [BSA], 5 mM dithiothreitol) containing 0.05 μM Biotin-labeled Bcl-2–associated death promoter protein peptide substrate (AnaSpec, Fremont, California), 1 mM ATP, and 2.5 pM PIM1 (Invitrogen, Thermo Fisher Scientific, Waltham, Massachusetts), or 1.25 pM PIM3 (Millipore, Billerica, Massachusetts) enzyme. […] After the reactions were stopped, the plates were incubated for 1 hour in the dark at room temperature and then read on a PHERAstar FS plate reader (BMG Labtech, Cary, North Carolina) under reduced light.
For orientation: Bead proximity is the source of the signal in Alpha formats.

For assay [7], the target named is PLK3 (Homo sapiens, UniProt Q9H4B4). Kind of assay: Kinase selectivity panel. In kind it is biochemical. The conditions noted are these: [ATP] = 1 mM.
PLK3, sequence (Q9H4B4 whole entry): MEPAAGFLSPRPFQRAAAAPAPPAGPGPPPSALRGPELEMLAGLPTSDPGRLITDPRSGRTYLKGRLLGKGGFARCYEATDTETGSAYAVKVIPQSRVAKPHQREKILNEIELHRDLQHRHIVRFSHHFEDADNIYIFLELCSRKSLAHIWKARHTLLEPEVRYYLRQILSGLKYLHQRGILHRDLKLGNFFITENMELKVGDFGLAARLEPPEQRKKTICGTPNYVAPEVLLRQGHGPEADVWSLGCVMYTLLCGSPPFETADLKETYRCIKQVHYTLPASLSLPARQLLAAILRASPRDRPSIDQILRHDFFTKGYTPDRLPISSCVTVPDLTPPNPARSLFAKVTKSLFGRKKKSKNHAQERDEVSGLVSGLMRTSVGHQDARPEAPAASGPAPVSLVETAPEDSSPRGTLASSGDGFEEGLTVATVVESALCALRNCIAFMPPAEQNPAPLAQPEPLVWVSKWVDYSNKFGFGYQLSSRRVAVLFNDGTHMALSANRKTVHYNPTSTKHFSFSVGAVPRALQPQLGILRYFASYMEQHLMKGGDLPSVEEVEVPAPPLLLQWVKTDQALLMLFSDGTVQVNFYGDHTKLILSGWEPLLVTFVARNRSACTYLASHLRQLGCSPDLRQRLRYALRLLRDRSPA
The subject of assay [8] is primary bone marrow blasts from patients with AML. Kind of assay: Ex vivo treatment of primary bone marrow blasts from patients with AML (Western blot). In kind it is cell-based, human. Here is the method: The effects of INCB053914 on pBAD, pp70S6K, and p4E-BP1 levels and on the expression of PIM isozymes also were assessed ex vivo in primary bone marrow blasts (Stem Cell and Xenograft Core, University of Pennsylvania, Philadelphia, Pennsylvania) or in peripheral blood mononuclear cells (PBMCs) derived from whole blood samples obtained with informed written consent from adult patients with AML enrolled in an ongoing phase 1/2 dose-escalation trial, which was conducted in accordance with the study protocol approved by the respective institutional review boards or independent ethics committees. Only samples initially containing >90% viable cells were used (assessed by Trypan Blue staining). Immediately after thawing, the blasts were cultured in RPMI + 10% FBS with INCB053914 for 2 hours at 37°C, before lysis. For determinations of PIM2 expression in PBMCs, whole blood samples were treated overnight with increasing concentrations of INCB053914; total PBMCs were isolated by Ficoll-Paque density gradient centrifugation before lysis. The levels of PIM isozymes and phosphoproteins in cell lysates were detected by Western blotting using the same primary antibodies as above.
For orientation: In western blotting, separated proteins are transferred to a membrane and probed.

The target of assay [9] is JNK1 (Homo sapiens, UniProt P45983). Put plainly: Kinase selectivity panel. The conditions noted are these: [ATP] = 1 mM. In kind it is biochemical.
JNK1, sequence (P45983 whole entry): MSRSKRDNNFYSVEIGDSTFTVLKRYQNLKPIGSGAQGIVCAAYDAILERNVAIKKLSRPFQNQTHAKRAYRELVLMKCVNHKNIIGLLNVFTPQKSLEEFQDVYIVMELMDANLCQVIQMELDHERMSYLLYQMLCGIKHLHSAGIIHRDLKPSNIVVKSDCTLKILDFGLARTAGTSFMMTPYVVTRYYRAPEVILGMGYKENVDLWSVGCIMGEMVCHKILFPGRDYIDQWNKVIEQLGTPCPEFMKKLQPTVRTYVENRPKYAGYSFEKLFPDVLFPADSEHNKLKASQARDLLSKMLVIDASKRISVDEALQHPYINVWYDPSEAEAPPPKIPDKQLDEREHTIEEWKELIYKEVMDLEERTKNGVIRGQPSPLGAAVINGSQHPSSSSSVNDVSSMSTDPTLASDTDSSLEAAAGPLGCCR
In assay [10] the test system is human KG-1 AML xenografts. Kind of assay: Tumor growth in KG-1 (AML) xenograft, combination with cytarabine. In kind it is in vivo, mouse. The note with it: KG-1 (AML) tumors.
Experimental: Female immune compromised (severe combined immunodeficiency [SCID]) mice (5–9 weeks of age; Charles River Laboratories, Wilmington, Massachusetts) were inoculated with MOLM-16, KG-1, or KMS-12-BM cells. A cell suspension in Dulbecco’s phosphate-buffered saline (DPBS) (1 × 10^8 cells/ml) was mixed 1:1 (v/v) with matrigel, and 200 μl was injected subcutaneously into the flank of each mouse. […] The treatment of tumor-bearing mice started 7 to 24 days after tumor inoculation for efficacy studies and approximately 14 to 27 days after tumor inoculation for pharmacodynamic studies.
Synergistic effects of INCB053914 in combination with INCB050465, cytarabine, or itacitinib, were assessed based on the Bliss independence model [56, 57]. In this model, the expected additive effect, with the assumption that concentration dependent effects of 2 drugs (A and B) are independent, is given by the equation EIND = EA + EB – EA •EB, where 0 ≤ EIND ≤ 1; EA and EB are the magnitudes of effects of A and B alone at given concentrations.
The interaction between effects of A and B can be described by the equation Combination Index = EIND/ EOBS, where EOBS is the observed combined effect of A + B expressed as a probability (0 ≤ EOBS ≤ 1). […]
The target in assay [11] is PIM2 (Homo sapiens, UniProt Q9P1W9). Put plainly: Kinase selectivity panel. In kind it is biochemical. The note with it: [ATP] = 1 mM.
PIM2, sequence (Q9P1W9 whole entry): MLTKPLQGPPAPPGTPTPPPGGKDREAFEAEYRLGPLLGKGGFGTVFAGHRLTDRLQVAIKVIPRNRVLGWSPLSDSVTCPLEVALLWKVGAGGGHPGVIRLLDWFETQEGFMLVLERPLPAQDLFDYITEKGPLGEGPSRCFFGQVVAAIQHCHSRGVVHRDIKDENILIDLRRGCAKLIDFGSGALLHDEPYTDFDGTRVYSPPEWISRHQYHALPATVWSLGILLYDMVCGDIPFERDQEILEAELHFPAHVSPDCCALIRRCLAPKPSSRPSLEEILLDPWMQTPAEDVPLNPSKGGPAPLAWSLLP
Assay [12] relates to panel of 192 kinases. Kind of assay: Broader panel of 192 kinases (PerkinElmer). In kind it is biochemical. The note with it: INCB053914 100 nM; results not shown.

FGFR3, sequence (P22607 23-806): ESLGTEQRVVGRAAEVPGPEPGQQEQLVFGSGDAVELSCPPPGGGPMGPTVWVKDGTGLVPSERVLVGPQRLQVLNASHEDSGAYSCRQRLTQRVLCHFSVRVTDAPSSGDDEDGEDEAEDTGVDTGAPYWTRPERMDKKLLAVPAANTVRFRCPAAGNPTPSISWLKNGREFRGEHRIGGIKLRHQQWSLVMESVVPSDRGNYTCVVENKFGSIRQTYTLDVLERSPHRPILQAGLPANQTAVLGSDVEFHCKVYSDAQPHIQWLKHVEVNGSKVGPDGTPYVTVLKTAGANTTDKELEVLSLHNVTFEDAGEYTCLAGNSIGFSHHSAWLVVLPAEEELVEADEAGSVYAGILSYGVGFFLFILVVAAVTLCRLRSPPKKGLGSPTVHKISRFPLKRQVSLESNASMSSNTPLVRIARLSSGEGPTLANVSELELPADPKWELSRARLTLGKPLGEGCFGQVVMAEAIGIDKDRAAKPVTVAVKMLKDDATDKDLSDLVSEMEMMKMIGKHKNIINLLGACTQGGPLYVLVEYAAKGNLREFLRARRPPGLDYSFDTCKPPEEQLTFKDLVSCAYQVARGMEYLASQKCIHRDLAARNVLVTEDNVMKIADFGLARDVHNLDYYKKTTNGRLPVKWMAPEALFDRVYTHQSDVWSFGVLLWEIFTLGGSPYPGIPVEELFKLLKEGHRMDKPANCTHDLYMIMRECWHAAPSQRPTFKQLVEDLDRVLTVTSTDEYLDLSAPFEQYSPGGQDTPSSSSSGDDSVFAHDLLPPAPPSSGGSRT
PRKAA1, sequence (Q13131 whole entry, the tested form may be a part): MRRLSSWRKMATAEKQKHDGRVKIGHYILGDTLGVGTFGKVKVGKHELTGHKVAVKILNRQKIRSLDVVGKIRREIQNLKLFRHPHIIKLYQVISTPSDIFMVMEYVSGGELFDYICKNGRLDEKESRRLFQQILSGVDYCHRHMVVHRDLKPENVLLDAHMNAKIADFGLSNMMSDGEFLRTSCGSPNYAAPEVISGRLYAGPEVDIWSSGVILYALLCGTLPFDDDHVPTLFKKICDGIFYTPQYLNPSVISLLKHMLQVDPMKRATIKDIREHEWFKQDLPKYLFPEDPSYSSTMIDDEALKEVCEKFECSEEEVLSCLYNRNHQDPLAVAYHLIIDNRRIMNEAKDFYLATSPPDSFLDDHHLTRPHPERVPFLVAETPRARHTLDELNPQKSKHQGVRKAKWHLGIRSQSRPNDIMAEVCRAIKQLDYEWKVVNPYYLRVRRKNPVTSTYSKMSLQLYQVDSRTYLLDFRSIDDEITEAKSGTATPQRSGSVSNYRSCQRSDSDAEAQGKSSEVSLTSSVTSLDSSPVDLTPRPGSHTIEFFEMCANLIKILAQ
PRKAA1, sequence (Q9Y478 whole entry partner, the tested form may be a part): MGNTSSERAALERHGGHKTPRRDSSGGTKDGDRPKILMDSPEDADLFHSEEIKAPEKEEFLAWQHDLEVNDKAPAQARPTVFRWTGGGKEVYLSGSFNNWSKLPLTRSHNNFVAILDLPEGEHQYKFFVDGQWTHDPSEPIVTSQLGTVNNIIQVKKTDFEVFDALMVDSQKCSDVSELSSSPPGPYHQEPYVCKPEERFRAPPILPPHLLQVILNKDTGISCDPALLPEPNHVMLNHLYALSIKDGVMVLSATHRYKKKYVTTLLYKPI
PRKAA1, sequence (P54619 whole entry partner, the tested form may be a part): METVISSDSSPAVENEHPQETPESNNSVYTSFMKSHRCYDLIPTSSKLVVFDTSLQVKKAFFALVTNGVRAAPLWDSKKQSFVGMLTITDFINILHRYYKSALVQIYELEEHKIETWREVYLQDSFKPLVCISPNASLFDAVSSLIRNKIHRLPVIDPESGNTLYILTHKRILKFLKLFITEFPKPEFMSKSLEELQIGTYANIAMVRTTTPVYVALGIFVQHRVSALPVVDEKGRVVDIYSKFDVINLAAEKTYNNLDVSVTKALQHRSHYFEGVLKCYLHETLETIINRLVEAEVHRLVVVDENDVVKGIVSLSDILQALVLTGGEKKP
LCK, sequence (P06239 whole entry): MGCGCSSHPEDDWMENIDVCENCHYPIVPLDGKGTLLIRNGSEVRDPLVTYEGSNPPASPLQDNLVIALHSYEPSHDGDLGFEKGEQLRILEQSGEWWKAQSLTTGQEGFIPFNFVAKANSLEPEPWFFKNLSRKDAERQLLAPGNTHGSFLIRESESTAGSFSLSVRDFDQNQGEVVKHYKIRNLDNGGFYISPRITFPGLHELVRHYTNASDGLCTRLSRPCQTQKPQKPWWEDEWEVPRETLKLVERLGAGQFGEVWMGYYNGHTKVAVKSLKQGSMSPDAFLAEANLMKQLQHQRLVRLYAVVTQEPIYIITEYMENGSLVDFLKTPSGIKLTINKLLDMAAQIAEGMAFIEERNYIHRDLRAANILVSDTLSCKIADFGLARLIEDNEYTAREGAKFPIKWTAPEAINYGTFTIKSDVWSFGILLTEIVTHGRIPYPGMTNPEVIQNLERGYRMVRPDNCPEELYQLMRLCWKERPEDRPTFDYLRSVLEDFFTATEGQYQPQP

Regarding `C[C@H]1CN(c2c(NC(=O)c3ccc(F)c(-c4c(F)cccc4F)n3)cnc3c2CC[C@H]3O)C[C@@H](N)[C@@H]1O.O=P(O)(O)O` [INCB053914, N-((R)-4-((3R,4R,5S)-3-amino-4-hydroxy-5-methylpiperidin-1-yl)-7-hydroxy-6,7-dihydro-5H-cyclopenta[b]pyridin-3-yl)-6-(2,6-difluorophenyl)-5-fluoropicolinamide phosphate], the IC50 is greater than 20 µM in assay [1]; greater than 20 µM in assay [2]; greater than 20 µM in assay [3]; 0.134 µM in assay [5]; 0.00024 µM in assay [6]; greater than 20 µM in [7]. For the same compound, the results for the concentration for half-maximal inhibition (IC50) in [9] and in assay [11] were greater than 20 µM and 0.015 µM, respectively. The tumor growth inhibition was 43% in assay [4] (25 mg/kg twice a day), 71% in assay [4] (50 mg/kg twice a day), 77% in assay [4] (75 mg/kg twice a day) and 88% in assay [4] (100 mg/kg twice a day). In assay [8], the “patients whose blasts showed decreases in BAD phosphorylation” value was “two of four patients”. The PIM2 expression entry in assay [8] (2 hours) is “increased PIM2 expression”. In addition, the “phosphorylation of p70S6K and 4E-BP1” value in [8] (2 hours) is “decreased phosphorylation of p70S6K and 4E-BP1”. The “tumor growth, single agent” value in assay [10] was “inhibited”. Besides, the “kinases significantly inhibited in the panel of 192 kinases” value in assay [12] is “no kinase other than Per-Arnt-Sim (PAS) kinase was significantly inhibited”.

(Values after PMC6013247, “Preclinical characterization of INCB053914, a novel pan-PIM kinase inhibitor, alone and in combination with anticancer agents, in models of hematologic malignancies” (PLoS ONE, 2018).)
